Experiments:
[1] = system: CD8+ T cells of healthy HLA-A*02+ donors; experiment: In vitro immunogenicity: T-cell priming with aAPCs loaded with HLA-A*02/peptide complexes and anti-CD28, pMHC multimer readout; assay type: cell-based, human; conditions: for Wells positive [%]: in vitro immunogenicity, HLA-A*02 peptides (SEQ ID No 1-251), pMHC multimer readout
Excerpt: FIGS. 4A to 4D show exemplary results of peptide-specific in vitro CD8+ T cell responses of a healthy HLA-A*02+ donor. CD8+ T cells were primed using artificial APCs coated with anti-CD28 mAb and HLA-A*02 in complex with SeqID No 27 peptide (FIG. 4A, left panel), SeqID No 229 peptide (FIG. 4B, left panel), SeqID No 230 peptide (FIG. 4C, left panel) and SeqID No 235 peptide (FIG. 4D, left panel), respectively. After three cycles of stimulation, the detection of peptide-reactive cells was performed by 2D multimer staining with A*02/SeqID No 27 (FIG. 4A), A*02/SeqID No 229 (FIG. 4B), A*02/SeqID No 230 (FIG. 4C) or A*02/SeqID No 235 (FIG. 4D). Right panels (FIGS. 4A, 4B, 4C and 4D) show control staining of cells stimulated with irrelevant A*02/peptide complexes. Viable singlet cells were gated for CD8+ lymphocytes. Boolean gates helped excluding false-positive events detected with multimers specific for different peptides. Frequencies of specific multimer+ cells among CD8+ lymphocytes are indicated.
In order to obtain information regarding the immunogenicity of the TUMAPs of the present invention, the inventors performed investigations using an in vitro T-cell priming assay based on repeated stimulations of CD8+ T cells with artificial antigen presenting cells (aAPCs) loaded with peptide/MHC complexes and anti-CD28 antibody.
In order to perform in vitro stimulations by artificial antigen presenting cells loaded with peptide-MHC complex (pMHC) and anti-CD28 antibody, the inventors first isolated CD8+ T cells from fresh HLA-A*02 leukapheresis products via positive selection using CD8 microbeads (Miltenyi Biotec, Bergisch-Gladbach, Germany) of healthy donors obtained from the University clinics Mannheim, Germany, after informed consent.
PBMCs and isolated CD8+ lymphocytes were incubated in T-cell medium (TCM) until use consisting of RPMI-Glutamax (Invitrogen, Karlsruhe, Germany) supplemented with 10% heat inactivated human AB serum (PAN-Biotech, Aidenbach, Germany), 100 U/ml Penicillin/100 μg/ml Streptomycin (Cambrex, Cologne, Germany), 1 mM sodium pyruvate (CC Pro, Oberdorla, Germany), 20 μg/ml Gentamycin (Cambrex). 2.5 ng/ml IL-7 (PromoCell, Heidelberg, Germany) and 10 U/ml IL-2 (Novartis Pharma, Nurnberg, Germany) were also added to the TCM at this step.
Generation of pMHC/anti-CD28 coated beads, T-cell stimulations and readout was performed in a highly defined in vitro system using four different pMHC molecules per stimulation condition and 8 different pMHC molecules per readout condition.
The purified co-stimulatory mouse IgG2a anti human CD28 Ab 9.3 (Jung et al., 1987) was chemically biotinylated using Sulfo-N-hydroxysuccinimidobiotin as recommended by the manufacturer (Perbio, Bonn, Germany). Beads used were 5.6 μm diameter streptavidin coated polystyrene particles (Bangs Laboratories, IIIinois, USA).
pMHC used for positive and negative control stimulations were A*0201/MLA-001 (peptide […] (SEQ ID NO. 303) from modified Melan-A/MART-1) and A*0201/DDX5-001 ([…] from DDX5, SEQ ID NO. 304), respectively.
800.000 beads/200 μl were coated in 96-well plates in the presence of 4×12.5 ng different biotin-pMHC, washed and 600 ng biotin anti-CD28 were added subsequently in a volume of 200 μl. Stimulations were initiated in 96-well plates by co-incubating […] CD8+ T cells with 2×10^5 washed coated beads in 200 μl TCM supplemented with 5 ng/ml IL-12 (PromoCell) for 3 days at 37° C. Half of the medium was then exchanged by fresh TCM supplemented with 80 U/ml IL-2 and incubating was continued for 4 days at 37° C. This stimulation cycle was performed for a total of three times. For the pMHC multimer readout using 8 different pMHC molecules per condition, a two-dimensional combinatorial coding approach was used as previously described (Andersen et al., 2012) with minor modifications encompassing coupling to 5 different fluorochromes. […]

HLA-A*02 = experiment: MHC binding assay: UV-ligand exchange and beta2m ELISA, peptide exchange yield; set-up: species or system human; conditions: binding to HLA-A*02, UV-ligand exchange, β2m ELISA
Excerpt: Candidate peptides for T cell based therapies according to the present invention were further tested for their MHC binding capacity (affinity). The individual peptide-MHC complexes were produced by UV-ligand exchange, where a UV-sensitive peptide is cleaved upon UV-irradiation, and exchanged with the peptide of interest as analyzed. Only peptide candidates that can effectively bind and stabilize the peptide-receptive MHC molecules prevent dissociation of the MHC complexes. To determine the yield of the exchange reaction, an ELISA was performed based on the detection of the light chain (β2m) of stabilized MHC complexes. The assay was performed as generally described in Rodenko et al. (Rodenko et al., 2006).
96 well MAXISorp plates (NUNC) were coated over night with 2 ug/ml streptavidin in PBS at room temperature, washed 4× and blocked forl h at 37° C. in 2% BSA containing blocking buffer. Refolded HLA-A*02:01/MLA-001 monomers served as standards, covering the range of 15-500 ng/ml. Peptide-MHC monomers of the UV-exchange reaction were diluted 100 fold in blocking buffer. Samples were incubated for 1 h at 37° C., washed four times, incubated with 2 ug/ml HRP conjugated anti-β2m for 1 h at 37° C., washed again and detected with TMB solution that is stopped with […]. Absorption was measured at 450 nm. Candidate peptides that show a high exchange yield (preferably higher than 50%, most preferred higher than 75%) are generally preferred for a generation and production of antibodies or fragments thereof, and/or T cell receptors or fragments thereof, as they show sufficient avidity to the MHC molecules and prevent dissociation of the MHC complexes.

| Substance | Wells positive [%] [1] | Peptide exchange (HLA-A*02) | in vitro immunogenicity, Wells ([1]; HLA-A*02 peptides, share of positive wells) |
| --- | --- | --- | --- |
| 12 (GLLPLLHRA; listed as Homo sapiens) [compound 12] | ++++ (> = 70% = ++++) | ++++ (> = 75% = ++++) |  |
| 249 (GLCERLVSL; listed as Homo sapiens) [compound 249] | + (<20% = +) | ++++ (> = 75% = ++++) |  |
| 230 (KLQNIMMLL; listed as Homo sapiens) [compound 230] | ++++ (> = 70% = ++++) |  |  |
| 293 (FLVDGSWSI; listed as Homo sapiens) [compound 293] |  |  | + (<20% = +) |
| 4 (KLMPGTYTL; listed as Homo sapiens) [compound 4] | + (<20% = +) | ++++ (> = 75% = ++++) |  |
| 5 (GIVAHIQEV; listed as Homo sapiens) [compound 5] | + (<20% = +) |  |  |
| 29 (YLLDPSITL; listed as Homo sapiens) [compound 29] | + (<20% = +) |  |  |
| 149 (ILNTHITEL; listed as Homo sapiens) [compound 149] | + (<20% = +) |  |  |
